This is an account of results in PMC12583827, “Harnessing microbial-derived metabolites in the urinary tract to prevent infection induced catheter encrustation” (Nature Communications, 2025).

SMILES strings stand for the structures. Where a name gives a salt, the structure may show the parent alone. Read-outs that look alike come from different tables or passages of the source.

In experiment [1] the target is T1, P. mirabilis urease (Proteus mirabilis, UniProt P17086).
T1 construct: it utilizes whole bacterial cells, rather than isolated enzyme preparations; endogenous in cells; host or cells: Proteus mirabilis HI4320, live whole cells
T1 sequence (P17086 whole entry): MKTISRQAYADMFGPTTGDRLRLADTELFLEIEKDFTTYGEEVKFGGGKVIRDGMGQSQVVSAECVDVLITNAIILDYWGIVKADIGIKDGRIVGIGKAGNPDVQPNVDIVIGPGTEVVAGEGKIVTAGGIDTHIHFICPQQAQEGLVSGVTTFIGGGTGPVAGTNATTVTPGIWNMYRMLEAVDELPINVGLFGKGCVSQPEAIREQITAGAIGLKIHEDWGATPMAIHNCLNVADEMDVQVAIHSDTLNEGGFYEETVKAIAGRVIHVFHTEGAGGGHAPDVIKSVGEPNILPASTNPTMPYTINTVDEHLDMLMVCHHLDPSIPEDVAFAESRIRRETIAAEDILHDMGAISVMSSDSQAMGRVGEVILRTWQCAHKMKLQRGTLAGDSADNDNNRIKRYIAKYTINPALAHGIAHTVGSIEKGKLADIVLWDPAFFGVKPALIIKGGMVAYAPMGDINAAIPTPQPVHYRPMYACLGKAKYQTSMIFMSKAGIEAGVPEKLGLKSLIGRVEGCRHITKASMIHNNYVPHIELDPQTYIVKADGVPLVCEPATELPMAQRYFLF
T1 sequence (P17088 whole entry, further chain): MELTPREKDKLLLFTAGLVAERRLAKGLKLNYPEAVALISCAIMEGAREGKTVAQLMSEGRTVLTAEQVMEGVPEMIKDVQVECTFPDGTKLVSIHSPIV
T1 sequence (P17087 whole entry, further chain): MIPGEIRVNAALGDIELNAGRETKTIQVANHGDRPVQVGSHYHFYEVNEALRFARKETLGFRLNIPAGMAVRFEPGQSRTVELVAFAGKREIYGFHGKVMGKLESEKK
The class given is cell-based. The note with it: for effect on P. mirabilis urease activity (whole cell): potassium phosphate buffer, dose response.
Method: Urease activity was measured as described previously in triplicate with at least three biological replicates[21]. Briefly, bacteria were cultured for ~18 h in LB broth, concentrated to an OD600 of 4, washed once in saline, and diluted (1:10 for P. mirabilis and 1:50 for P. stuartii and M. morganii) into candidate dampening metabolites in potassium phosphate buffer or human urine pH7 and supplemented with 500 mM urea and 0.01% phenol red. Bacterial suspensions were distributed into a 96-well plate, incubated at 37 °C with double-orbital shaking in a Synergy H1 plate reader (BioTek), and absorbance (OD562) was measured every 60 seconds for 180 minutes. Isogenic urease mutants (Supplementary Data 1) served as negative controls for P. mirabilis and P. stuartii and a vehicle control served as a negative control for M. morganii.

Experiment [2] addresses T2, urease of P. mirabilis HI4320 cell free extracts (Proteus mirabilis, UniProt P17086).
T2 construct: 20ul of cell-free extract were distributed into a 96-well plate in place of the whole cell bacterial suspensions; endogenous in cells; host or cells: Proteus mirabilis HI4320, urea-induced; freeze-thaw and sonication lysate, clarified supernatant
The class given is biochemical. As for the experimental part:
To measure urease activity of the cell free extracts of P. mirabilis, P. mirabilis was cultured for ~18 h in LB broth and then sub cultured until it reached mid-log growth phase (OD600 0.2-0.5). Cultures were spun down to pellet at 10,000 rcf for 10 minutes and resuspended in saline to a final OD600 of 1.0. Cultures were then diluted 1:10 in potassium phosphate buffer pH7 supplemented with 500 mM urea and incubated at 37 °C with shaking for 1 h to induce its urease enzyme production. The isogenic urease mutant Pm ureF::kan (Supplementary Data 1) served as negative control. Cultures then were spun down to pellet at 10,000 rcf for 10 minutes and resuspended in 2 mL saline. Cultures were subjected to four cycles of freezing in liquid nitrogen and thawing in a 37 °C water bath. Cultures were then probe sonicated (on ice) at 25% amplitude for 10 sec. Sonicated cultures were centrifuged at 18,900 Xg for 5 min and supernatants were transferred to a clean tube and stored on ice. To measure urease activity of cell free extracts, the previously described assay was modified such that 20ul of cell-free extract were distributed into a 96-well plate in place of the whole cell bacterial suspensions. Acetohydroxamic acid (AHA), was used as a positive control. Percent of maximum urease activity was calculated using Area Under the Curve (AUC) relative to untreated cell free extracts of P. mirabilis.

Another experiment has as its target T3, Jack Bean Urease (JBU) (Canavalia ensiformis, UniProt P07374).
T3 construct: purchased Sigma-Aldrich
The class given is biochemical. To be noted: for JBU activity: 0.1 U JBU, 500 mM urea. As for the experimental part:
To measure Jack Bean urease activity, the previously described assay was modified such that 0.1 U (1U liberates 1 µmol of ammonia from urea per minute) of JBU (Sigma-Aldrich urease from Canavalia ensiformis) were distributed into a 96-well plate in place of the bacterial suspensions. Acetohydroxamic acid (AHA), was used as a positive control and a vehicle control was used as a negative control. Percent of maximum urease activity was calculated using Area Under the Curve (AUC) relative to untreated bacteria of interest or untreated JBU. Urease activity measurement in MRSA was adapted from a recently published semi quantitative assay (See Supplementary materials for details)[48].
414 Supplementary Figure 13. Microbial metabolites dampen activity of purified Jack Bean
415 Urease (JBU). 0.1 U of JBU (1U liberates 1 µmol of ammonia from urea per minute) was
416 incubated at 37 °C with shaking in urease-dampening metabolites, 500mM urea, and phenol red.
417 A urea analogue, AHA, served as the positive control for inhibition of JBU. Absorbance
418 (OD562) was measured every 60 seconds for 90 minutes, and activity is expressed as percent of
419 maximum activity (% Max Activity) relative to untreated JBU. Graphs show mean±SD for 3
420 independent experiments with 3 technical replicates each. Data were analyzed by two tailed one
421 sample t-test to a hypothetical value of 100% activity. ***P<0.001, **P<0.002, *P<0.033.
(1 picture or pasted object on this page, not shown here)

For experiment [3], the target named is T4, urease of P. mirabilis cell free extracts (Proteus mirabilis, UniProt P17086).
T4 construct: 20ul of cell-free extract were distributed into a 96-well plate in place of the whole cell bacterial suspensions; endogenous in cells; host or cells: Proteus mirabilis HI4320, urea-induced; freeze-thaw and sonication lysate, clarified supernatant
T4 sequence (P17086 whole entry): as the sequence (P17086 whole entry) above
T4 sequence (P17088 whole entry, further chain): as the sequence (P17088 whole entry, further chain) above
T4 sequence (P17087 whole entry, further chain): as the sequence (P17087 whole entry, further chain) above
The class given is biochemical. To be noted: for type of urease inhibition: Michaelis-Menten parameters, Lineweaver-Burke plot. As for the experimental part:
For the kinetic analysis of the urease reaction in the presence of urease dampening metabolites, urease activity assays were repeated with the P. mirabilis cell free extracts. Six different inhibitor concentrations that gave linear rates of reaction over a period of 120 min were tested for their effects on urease activity in the presence of urea concentrations ranging from 0 to 500 mM. Simple linear regression was performed on the absorbance (OD562) over 120 minutes for each condition and plotted as Initial velocity (slope) vs urea concentration. These initial hyperbolic plots were converted to double-reciprocal Lineweaver-Burke plots, and the pattern of inhibition inferred from the point of intersection of the lines. Finally, the Ki for a particular compound was determined by plotting the Km/Vmax ratio (the slope of the Lineweaver-Burke plots) of each line as a function of the inhibitor concentration as described by ref. [49]. The X-intercept corresponded to –Ki.

In experiment [4] the target is T1, P. mirabilis urease. The class given is cell-based. To be noted: for Combination index (CI): in combination with AHA; for Compound 2 %I alone: kphos. As for the experimental part: To assess the synergistic effects of dampening metabolites when used in combination with each other, P. mirabilis urease activity was measured as described above. Between 4-6 different concentrations for each dampening metabolite were tested both alone and in combination (See Fig. 6a for example). […] To account for variability between experiments, all conditions tested were performed on a single 96-well plate with three technical replicates for each condition. To compare between biologic replicates, percent inhibition relative to untreated P. mirabilis was calculated for each condition using the average area under the curve over 120-180 minutes (so that the positive control activity curve saturated without any increase in the negative control curve).
Statistical analysis was conducted using a one sample T test of the combination index compared to a hypothetical value of 1 (additive effect). […] Therefore, combination indexes were calculated using a desired effect size less than 40% were indicated with an * in Fig. 6b and in Supplementary Data 5.

T2 sequence (P17088 whole entry): as the sequence (P17088 whole entry, further chain) above
T2 sequence (P17086 whole entry): as the sequence (P17086 whole entry) above
T2 sequence (P17087 whole entry, further chain): as the sequence (P17087 whole entry, further chain) above
T3 sequence (P07374 whole entry, looked up): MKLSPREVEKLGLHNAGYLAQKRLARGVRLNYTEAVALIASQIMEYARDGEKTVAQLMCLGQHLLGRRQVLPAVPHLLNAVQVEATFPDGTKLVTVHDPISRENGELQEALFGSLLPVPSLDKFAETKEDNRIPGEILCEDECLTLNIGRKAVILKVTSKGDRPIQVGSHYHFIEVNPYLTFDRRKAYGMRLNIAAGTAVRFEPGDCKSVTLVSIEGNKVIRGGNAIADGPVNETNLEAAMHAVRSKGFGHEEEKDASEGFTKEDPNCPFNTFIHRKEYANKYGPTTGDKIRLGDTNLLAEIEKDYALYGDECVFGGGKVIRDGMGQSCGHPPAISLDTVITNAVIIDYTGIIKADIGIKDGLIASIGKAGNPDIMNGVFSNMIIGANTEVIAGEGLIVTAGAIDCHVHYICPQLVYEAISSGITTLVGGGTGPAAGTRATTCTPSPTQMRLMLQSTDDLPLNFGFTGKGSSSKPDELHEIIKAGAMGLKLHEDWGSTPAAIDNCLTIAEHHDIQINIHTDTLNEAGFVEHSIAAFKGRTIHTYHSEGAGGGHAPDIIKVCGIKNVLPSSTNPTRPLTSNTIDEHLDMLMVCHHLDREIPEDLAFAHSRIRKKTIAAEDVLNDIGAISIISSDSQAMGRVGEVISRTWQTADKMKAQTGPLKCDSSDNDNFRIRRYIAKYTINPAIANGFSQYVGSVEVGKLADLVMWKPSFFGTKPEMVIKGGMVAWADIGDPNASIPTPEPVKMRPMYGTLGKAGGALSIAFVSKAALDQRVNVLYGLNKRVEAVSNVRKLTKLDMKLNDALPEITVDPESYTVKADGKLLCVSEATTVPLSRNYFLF

`Cl.O=C(O)Cc1cnc[nH]1` [4-imidazole acetate, 2-(1H-Imidazol-5-yl)acetic acid hydrochloride]: the Dampens urease activity result at P. mirabilis urease [1] (biosynthetic pathway/functional group screen, highest concentration tested 20mM) was “Yes”. Besides, the “effect on P. mirabilis urease activity (whole cell)” value on P. mirabilis urease [1] was “additional hits”. Further, the “urease activity of cell free P. mirabilis extracts” value in experiment [2] is “at least partially inhibiting”. In addition, the JBU activity result on Jack Bean Urease (JBU) is “inhibited”. In addition, in experiment [3], the “change of estimated Km on addition of metabolite” value (“change of estimated Km” below) was “increase”, the “change of estimated Vmax on addition of metabolite” value (from here on “change of estimated Vmax”) is on record as “decrease” and the “type of urease inhibition” value is reported as “mixed inhibitors”. Besides, at P. mirabilis urease [4], the “concentrations required to achieve a significant combination index” value is recorded as below 50 mM and the “Combination index (CI)” value is reported as below 1.

As for `O.O=C(O)[C@H](O)Cc1cnc[nH]1` [D-imidazole lactate, D-imidazolelactic acid hydrate], on P. mirabilis urease [1] (concentrations not inhibiting growth/viability), the “sub-inhibitory concentrations that still decrease P. mirabilis urease activity” value is on record as at most 0.0391 mM. For the same compound, at P. mirabilis urease [1] (highest concentration tested 0.625mM), the Urease dampening activity entry was “Yes”. For the same compound, the “effect on P. mirabilis urease activity (whole cell)” value at P. mirabilis urease [1] is given as “more potent activity profile compared to the L-imidazole lactate”. For the same compound, the “urease activity of cell free P. mirabilis extracts” value in experiment [2] was “at least partially inhibiting”. For the same compound, at Jack Bean Urease (JBU), the JBU activity entry is “inhibited”. Moreover, in experiment [3], the “change of estimated Km” value is on record as “remain roughly unchanged”, the “change of estimated Vmax” value was “decrease” and the “type of urease inhibition” value was “non-competitive inhibition”. The “Compound 2 %I alone” value at P. mirabilis urease [4] (Compound 2 [] alone 0.0782, assay date 2024 08 07) was 34.9%. For the same compound, the “Compound 2 %I alone” value on P. mirabilis urease [4] (Compound 2 [] alone 0.156, assay date 2024 08 07) was 60.4%. In addition, on P. mirabilis urease [4] (Compound 2 [] alone 0.156, assay date 2024 08 09), the “Compound 2 %I alone” value was 49.2%.

With `NCCc1c[nH]cn1` [Histamine, histamine dihydrochloride], the “effect on P. mirabilis urease activity (whole cell)” value at P. mirabilis urease [1] is “reproducibly decreased”. Moreover, the Urease dampening activity entry on P. mirabilis urease [1] (screen of candidate metabolites, highest concentration tested 20mM, * Trending but not statistically significant, listed as Histamine HCl) is given as “Yes”. Moreover, the “urease activity of cell free P. mirabilis extracts” value in experiment [2] is “at least partially inhibiting”. The “concentrations at which JBU activity was significantly inhibited” value on Jack Bean Urease (JBU) was above 20 mM. Moreover, in experiment [3], the “change of estimated Km” value is listed as “increase”, the “change of estimated Vmax” value is reported as “decrease” and the “type of urease inhibition” value is listed as “mixed inhibitors”. Further, on P. mirabilis urease [4], the “concentrations required to achieve a significant combination index” value is below 50 mM and the “Combination index (CI)” value is below 1.
